# Where two headings read alike, the source gives them in different places.
# Test system: Aβ42 production
# Experiment: Measurement of amyloid β production inhibition rate using primary nerve cell
# Type: cell-based
# Details: primary nerve cells from cerebral cortex of SD rat fetus, cultured 3 days with compound, sandwich ELISA BNT77-BC05 of culture supernatant, read-out: Aβ42 production inhibitory activity IC50
# Method: (1) Measurement of Amyloid β Production Inhibition Rate Using Primary Nerve Cell
# The primary nerve cells were collected from the cerebral cortex of rat fetus (CLEA Japan, Inc.: SD rat, fetal life 17 days of age), and suspended in a neurobasal medium containing B27 supplement, L-glutamine, penicillin-streptomycin (manufactured by Invitrogen) at 500,000 cells/mL. Then, the suspension was seeded in poly L-lysine-coated 96 well plate (manufactured by SUMITOMO BAKELITE) by 100 μL, and cultured at 37° C., 5% CO2 for 7 days. The medium was completely removed, and a new neurobasal medium was added at 75 μL/well. Thereto was added (75 μL/well) a neurobasal medium supplemented with a 2-fold measurement concentration of an evaluation target compound, and the cells were cultured for 3 days. The culture supernatant was collected from each well, diluted as appropriate, applied to sandwich ELISA between BNT77 antibody-BA27 antibody (for Aβ40) and sandwich ELISA between BNT77 antibody-BC05 antibody (for Aβ42), and the amounts of Aβ40 and Aβ42 were measured.
# The amyloid β production inhibition rate (%) of the compound was calculated by the following formula.
# (1−(amyloid β production amount with addition of compound)/(amyloid β production amount without addition of compound))×100
"IC50 (Rattus norvegicus, 72 h) [nM]",IC50 [nM],Structure (SMILES)
88,–,"COc1cc(-c2nnc3n2CCCC3Oc2ccc(Cl)c(Cl)c2)ccc1-c1cnc(C)o1 (centres unmarked) [Example 25, 8-(3,4-dichlorophenoxy)-3-[3-methoxy-4-(2-methyl-1,3-oxazol-5-yl)phenyl]-5,6,7,8-tetrahydro[1,2,4]triazolo[4,3-a]pyridine]"
–,90,"COc1cc(-c2nnc3n2CCCC3c2ccc(Cl)c(Cl)c2)ccc1-c1cnc(C)o1 (centres unmarked) [Example 1, 8-(3,4-dichlorophenyl)-3-[3-methoxy-4-(2-methyl-1,3-oxazol-5-yl)phenyl]-5,6,7,8-tetrahydro[1,2,4]triazolo[4,3-a]pyridine]"
–,34,"COc1cc(-c2nnc3n2CCCC3c2ccc(Cl)c(Cl)c2)ccc1-c1cnc(C)o1 (single isomer, unassigned; (+)) [Example 2, (+)-8-(3,4-dichlorophenyl)-3-[3-methoxy-4-(2-methyl-1,3-oxazol-5-yl)phenyl]-5,6,7,8-tetrahydro[1,2,4]triazolo[4,3-a]pyridine]"
170,–,"COc1cc(-c2nnc3n2CCCCC3c2ccc(Cl)c(Cl)c2)ccc1-c1cnc(C)o1 (centres unmarked) [Example 15, 9-(3,4-dichlorophenyl)-3-[3-methoxy-4-(2-methyl-1,3-oxazol-5-yl)phenyl]-6,7,8,9-tetrahydro-5H-[1,2,4]triazolo[4,3-a]azepine]"

# Further lines, the compound ahead of its results:
Structure (SMILES),"IC50 (Rattus norvegicus, 72 h) [nM]",IC50 [nM]
"COc1cc(-c2nnc3n2CCCC3c2ccc(F)cc2C(F)(F)F)ccc1-c1cnc(C)o1 (centres unmarked) [Example 28, 8-[4-fluoro-2-(trifluoromethyl)phenyl]-3-[3-methoxy-4-(2-methyl-1,3-oxazol-5-yl)phenyl]-5,6,7,8-tetrahydro[1,2,4]triazolo[4,3-a]pyridine]",200,–
"COc1cc(-c2nc3n(n2)CCCC3c2ccccc2C(F)(F)F)ccc1-c1cnc(C)o1 (centres unmarked) [Example 12, 2-[3-methoxy-4-(2-methyl-1,3-oxazol-5-yl)phenyl]-8-[2-(trifluoromethyl)phenyl]-5,6,7,8-tetrahydro[1,2,4]triazolo[1,5-a]pyridine]",150,–
"COc1cc(-c2nnc3n2CCCC3c2ccccc2C(F)(F)F)ccc1-c1cnc(C)o1 (centres unmarked) [Example 8, 3-[3-methoxy-4-(2-methyl-1,3-oxazol-5-yl)phenyl]-8-[2-(trifluoromethyl)phenyl]-5,6,7,8-tetrahydro[1,2,4]triazolo[4,3-a]pyridine]",88,–
"COc1cc(-c2nnc3n2CCC[C@@H]3c2ccc(Cl)cc2C(F)(F)F)ccc1-c1cnc(C)o1 [Example 34, (R)-(+)-8-[4-chloro-2-(trifluoromethyl)phenyl]-3-[3-methoxy-4-(2-methyl-1,3-oxazol-5-yl)phenyl]-5,6,7,8-tetrahydro[1,2,4]triazolo[4,3-a]pyridine]",42,–
